This is an account of results in patent US9723860B2, “Method for improving economic performance in poultry husbandry” (PURAC BIOCHEM BV, priority 2012, dated 2017).

This assay deals with Broiler chickens. Put plainly: Example 2: 20 day performance of broilers on decreasing levels of lactylate mixture or diclazuril. The format is in vivo, chicken (broilers). The settings on record: day 20. An excerpt: Broilers were reared on a diet containing either decreasing levels of a mixture of lauric and myristic lactylates (lactylate test diet), or an effective dose of diclazuril (coccidiostat diet), or a filler consisting of corn starch and kaolin. The birds fed the test diet including the lactylates received the lactylates from the first feed onwards. For the first 10 days, the dosing level of lactylates was 0.4%. From day 11 onwards, the dosing level was reduced to 0.3%. At day 20, the economic performance of the broilers was evaluated using the body weight, body weight gain, feed consumption and feed-to-gain ratio.

Where [1] appears, read: lactylates 0.4% first 10 days, 0.3% from day 11, diclazuril effective dose, in diet.

On to `N#CC(c1ccc(Cl)cc1)c1c(Cl)cc(-n2ncc(=O)[nH]c2=O)cc1Cl` (centres unmarked) [Coccidiostat, diclazuril], for which the “economic performance versus control group” value is “did not improve performance”. For the same molecule, under setting [1], the Body weight is recorded as 850 g, the Body weight gain amounted to 804 g, the “Feed Consumption” value is 1115 g and the Feed-to-Gain ratio is given as 1.388 g/g.
